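Protocol summary: plate cells (96-well), add compound at 5 concentrations, incubate 48 h, interpolate endpoints linearly. Abbreviation: GI50, concentration required for 50% inhibition of growth.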 Activity calls are given as the source filed them. No stated cut-off is given here; in the data, active = GI50 up to about 1.1 µM and inactive = higher.
Key:
Test in all cases: NCI-60 cell line screen, 48 h
[1] = tested on: HT-29
[2] = tested on: COLO 205
[3] = tested on: Malme-3M
[4] = tested on: SK-MEL-2
[5] = tested on: UO-31
[6] = tested on: NCI-H460
[7] = tested on: OVCAR-3
[8] = tested on: SK-MEL-5
[9] = tested on: A498
[10] = tested on: A549
[11] = tested on: HOP-62
[12] = tested on: UACC-257
[13] = tested on: BT-549
[14] = tested on: SF-268
[15] = tested on: T47D
[16] = tested on: SNB-75
[17] = tested on: K562
[18] = tested on: SN12C
[19] = tested on: OVCAR-8
[20] = tested on: HCC 2998

Measured: GI50

c1ccc(CNCCN2CCNCC2)nc1
inactive: [1] > 100 µM | [2] > 100 µM | [3] > 100 µM | [4] > 100 µM | [5] > 100 µM | [6] > 100 µM | [7] > 100 µM | [8] > 100 µM | [9] > 100 µM | [10] > 100 µM | [11] > 100 µM | [12] > 100 µM | [13] > 100 µM | [14] > 100 µM | [15] > 100 µM | [16] 52 µM | [17] > 100 µM | [18] > 100 µM | [19] > 100 µM

O=c1[nH]c2nc3ccccc3c(=O)n2/c1=C/c1ccco1
inactive: [1] > 100 µM | [2] > 100 µM | [3] > 100 µM | [4] > 100 µM | [5] > 100 µM | [7] > 100 µM | [8] > 100 µM | [10] > 100 µM | [11] > 100 µM | [12] > 100 µM | [13] > 100 µM | [14] > 100 µM | [15] 23.4 µM | [16] > 100 µM | [17] > 100 µM | [20] > 100 µM | [18] > 100 µM | [19] > 100 µM

CCc1nc2ccc(/N=N/N(C)C)cc2[nH]1
inactive: [1] > 100 µM | [2] > 100 µM | [3] > 100 µM | [4] > 100 µM | [5] > 100 µM | [6] > 100 µM | [7] > 100 µM | [8] > 100 µM | [10] > 100 µM | [11] > 100 µM | [12] > 100 µM | [13] > 100 µM | [14] > 100 µM | [15] > 100 µM | [16] > 100 µM | [17] > 100 µM | [20] > 100 µM | [18] > 100 µM | [19] > 100 µM

CCOC(=O)CCC(C(=O)OCC)n1nnc2cc(Nc3c(C)[n+]([O-])c4ccc(Cl)cc4[n+]3[O-])ccc21 (stereo not drawn)
inactive: [1] 67.8 µM | [2] 44.8 µM | [3] > 100 µM | [4] 99.1 µM | [5] 65.5 µM | [6] 39.1 µM | [7] 40.4 µM | [8] 73.8 µM | [9] > 100 µM | [10] > 100 µM | [11] > 100 µM | [12] 54.1 µM | [13] > 100 µM | [14] 34.8 µM | [15] 39.9 µM | [16] 93.1 µM | [17] 69.3 µM | [18] 80.4 µM | [19] > 100 µM

CN/N=C(/C=C/c1ccccc1)C(C)C
inactive: [1] > 100 µM | [2] > 100 µM | [3] > 100 µM | [4] > 100 µM | [5] > 100 µM | [6] > 10 µM | [7] > 100 µM | [8] > 100 µM | [10] > 100 µM | [11] > 100 µM | [12] > 100 µM | [13] > 100 µM | [14] > 100 µM | [15] 86.3 µM | [16] > 100 µM | [17] > 100 µM | [20] > 100 µM | [18] > 100 µM | [19] > 100 µM

O=c1nc2n3c4c(cccc4nc-2c(=O)[nH]1)CCC3
inactive: [1] 95.9 µM | [2] 47 µM | [3] 21.6 µM | [4] > 100 µM | [5] > 100 µM | [6] > 100 µM | [7] 14 µM | [8] > 100 µM | [10] > 100 µM | [11] > 100 µM | [12] > 100 µM | [13] > 100 µM | [14] > 100 µM | [15] 60.7 µM | [16] > 100 µM | [17] > 100 µM | [20] > 100 µM | [18] > 100 µM | [19] > 100 µM

From ChEMBL document CHEMBL1201862, “PubChem BioAssay data set” (2004)
